The subject of series [1] is genotype 1a or 1b HCV replicon in Huh-7 cells. The series can be described thus: HCV replicon luciferase assay. In kind it is cell-based. As to conditions: Hepatitis C virus, 72 h; Huh-7 HCV replicon, Renilla luciferase, 3 days; genotype 1a or 1b not stated. On the procedure:
Cell lines. The cell lines used to evaluate compounds consist of a human hepatocyte derived cell line (Huh-7) that constitutively expresses a genotype 1a or 1b HCV replicon containing a Renilla luciferase reporter gene. These cells were maintained in Dulbecco's modified Eagle medium (DMEM) containing 10% FBS, 100 U/mL penicillin/streptomycin and 1.0 mg/mL G418.
HCV replicon luciferase assay. To evaluate compound efficacy, HCV replicon cells were seeded in 96-well plates in DMEM containing 10% FBS at a cell density of 10^4/well. Following incubation at 37° C. overnight, compounds serially diluted in DMSO were added to the cell plates. Alternatively, titrated compounds were transferred to sterile 384-well tissue-culture treated plates and the plates seeded with 50 μL of cells at a density of 2.4×10^3 cells/well in DMEM containing 4% FCS (final DMSO concentration at 0.5%). After 3 days incubation at 37° C., cells were analyzed for Renilla Luciferase activity using the EnduRen substrate (Promega cat #E6485) according to the manufacturer's directions. Briefly, the EnduRen substrate was diluted in DMEM and then added to the plates to a final concentration of 7.5 μM. The plates were incubated for at least 1 h at 37° C. then read on a TopCount NXT Microplate Scintillation and Luminescence Counter (Packard) or Viewlux Imager (PerkinElmer) using a luminescence program. […]

The target of a further series is T1, HCV NS5B (Hepatitis C virus genotype 1b, UniProt Q9WMX2).
T1 construct: The protein was expressed with an 18 amino acid C-terminal truncation to enhance the solubility; made in house; host or cells: E. coli BL21(DE3)
The series can be described thus: HCV NS5B RdRp enzyme assay. In kind it is biochemical. As to conditions: HCV NS5B RdRp genotype 1b. On the procedure:
HCV NS5B RdRp cloning, expression, and purification. The cDNA encoding the NS5B protein of HCV, genotype 1b, was cloned into the pET21a expression vector. The protein was expressed with an 18 amino acid C-terminal truncation to enhance the solubility. The E. coli competent cell line BL21(DE3) was used for expression of the protein. Cultures were grown at 37° C. for ˜4 hours until the cultures reached an optical density of 2.0 at 600 nm. The cultures were cooled to 20° C. and induced with 1 mM IPTG. Fresh ampicillin was added to a final concentration of 50 μg/mL and the cells were grown overnight at 20° C.
Cell pellets (3 L) were lysed for purification to yield 15-24 mgs of purified NS5B. The lysis buffer consisted of 20 mM Tris-HCl, pH 7.4, 500 mM NaCl, 0.5% triton X-100, 1 mM DTT, 1 mM EDTA, 20% glycerol, 0.5 mg/ml lysozyme, 10 mM MgCl2, 15 ug/ml deoxyribonuclease I, and Complete TM protease inhibitor tablets (Roche). After addition of the lysis buffer, frozen cell pellets were resuspended using a tissue homogenizer. To reduce the viscosity of the sample, aliquots of the lysate were sonicated on ice using a microtip attached to a Branson sonicator. […]
Standard HCV NS5B RdRp enzyme assay. […] Plates were read on a Packard Top Count NXT after >1 hr incubation at room temperature. […]

The conditions of series [2]: extended dosing of the combination regimens with interferon and ribavirin; cited from earlier work.
For series [3], the system named is HCV. Particulars: single agent: transient decrease then rebound; more robust drop with interferon and ribavirin; cited from earlier work.
The subject of series [4] is HCV. Particulars: combination therapy, Poynard et al. 1998; cited from earlier work.

The values below come from US8445497B2, “Compounds for the treatment of hepatitis C” (Bristol-Myers Squibb Company, priority 2010, dated 2013).

T1 sequence (Q9WMX2 2420-2992): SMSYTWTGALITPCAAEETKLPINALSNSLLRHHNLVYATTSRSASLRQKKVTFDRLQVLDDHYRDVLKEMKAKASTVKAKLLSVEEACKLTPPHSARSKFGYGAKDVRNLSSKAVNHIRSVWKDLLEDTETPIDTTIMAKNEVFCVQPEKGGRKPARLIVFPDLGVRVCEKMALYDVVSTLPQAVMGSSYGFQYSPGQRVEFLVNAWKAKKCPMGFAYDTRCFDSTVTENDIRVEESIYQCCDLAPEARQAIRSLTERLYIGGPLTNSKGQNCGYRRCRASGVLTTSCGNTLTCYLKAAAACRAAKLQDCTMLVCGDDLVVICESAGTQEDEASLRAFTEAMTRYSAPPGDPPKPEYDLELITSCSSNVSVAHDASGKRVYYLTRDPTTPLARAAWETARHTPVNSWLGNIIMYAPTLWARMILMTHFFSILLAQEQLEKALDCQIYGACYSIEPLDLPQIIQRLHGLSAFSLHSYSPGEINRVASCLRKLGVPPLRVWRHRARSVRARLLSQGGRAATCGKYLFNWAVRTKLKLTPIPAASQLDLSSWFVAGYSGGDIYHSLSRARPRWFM

In general, EC50 refers to the concentration giving half of the maximal effect. Low values mean a more potent agent, high ones a less potent agent. One may read the IC50 as the midpoint of a concentration-inhibition curve. Higher therefore signals a need for much substance. Take `CNC(=O)c1c(-c2ccc(Oc3ccc(F)cc3)cc2)oc2ccc(-c3cc(C(=O)NC4(c5ncccn5)CC4)c(OC)cc3C)c(F)c12` [4-Fluoro-2-(4-(4-fluorophenoxy)phenyl)-5-(4-methoxy-2-methyl-5-(1-(pyrimidin-2-yl)cyclopropylcarbamoyl)phenyl)-N-methylbenzofuran-3-carboxamide]: the midpoint of the response in series [1], the EC50, lay at 5 µM. The molecule further displayed an IC50 against HCV NS5B of 24 µM. Take `CNC(=O)c1c(-c2ccc(F)cc2)oc2cc(N(CCO)S(C)(=O)=O)c(C3CC3)cc12` [HCV-796]: the hepatic toxicity result in series [2] was “hepatic toxicity observed”. For the same molecule, the “HCV RNA levels in patients” value in the series with HCV [3] is “showed an ability to reduce HCV RNA levels in patients”.

Take alpha-interferon and ribavirin: the “sustained efficacy, share of patients” value with HCV [4] was 40%.
